Test results reported in patent US20100056516A1 (priority 2006, published 2010).
Where two headings read alike, the source gives them in different places.

How the values were obtained:
[1] = molecular target: HIV-1 reverse transcriptase (RNase H) (Human immunodeficiency virus type 1 group M subtype B, UniProt P04585); assay: ASH assay: RNase H mediated RNA cleavage (ECL format, BioVeris M384); assay type: biochemical
Protocol: Potency of a substance as an RNase H inhibitors can be determined by measuring its ability prevent RNase H catalyzed cleavage of the RNA strand in a RNA/DNA hybrid duplex substrate. RNase H activity is measured using a substrate generated by annealing the oligoribo-nucleotide 5′-rCrCrUrCrUrCrArArArArArCrArGrGrArGrCrArGrArArArGrArCrArArG (SEQ ID NO:1) to the oligodeoxyribonucleotide 5′-Biotin-[…] (SEQ ID NO:2). […] (SEQ ID NO:3). The resulting double-stranded duplex DNA product is quantitated in an ALPHA screen format using [streptavidin- and anti-fluorescein-coated beads (Packard Bioscience) following the manufacturer's guidelines and reading on a Fusion AlphaScreen instrument. Alternatively, the released 5′-Biotinylated DNA is annealed to a complementary oligodeoxyribonucleotide: 5′-ruthenium-[…] (SEQ ID NO:3). The resulting double-stranded duplex DNA product is quantitated in an ECL screen format using Dynabeads M280 coated with streptavidin (BioVeris Corporation) following the manufacturer's guidelines and reading on a BioVeris M384 Analyzer.

HIV integrase = HIV integrase (Human immunodeficiency virus type 1 group M subtype B, UniProt P04585); assay: integrase strand transfer assay (STA); assay type: biochemical
HXB2 virus = assay: microbe, parasite or virus in culture; assay type: cell-based, HIV
Procedure, shortened: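 Single-cycle infectivity assay in HeLa P4-2 cells measuring inhibition of acute HIV infection, using HXB2 virus.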

HeLa P4-2 cell line = test system: HeLa P4-2 cell line
Source text: The HeLa P4-2 cell line used in the single cycle HIV infectivity Assay B of Example 270 was also used to determine compound cytotoxicity in the absence of viral infection.

[2] = IC50 in the STA assay, integrase strand transfer
[3] = STA (IC50, μM), integrase strand-transfer assay, Example 269
[4] = Human immunodeficiency virus 1, HXB2, HeLaP4-2, read-out: SCIA-B (IC50, μM)
[5] = Human immunodeficiency virus 1, HXB2, HeLaP4-2, read-out: antiviral IC50 (SCIA-B)

## O=c1cc(NCc2cccc(N3CCOCC3)n2)c2cccnc2n1O [Example 115, 1-hydroxy-4-{[(6-morpholin-4-ylpyridin-2-yl)methyl]amino}-1,8-naphthyridin-2(1H)-one]
[1]
  IC50: 180 nM
HIV integrase; [2]
  IC50: < 50 µM
HIV integrase; [3]
  IC50: 1.9 µM
HXB2 virus; [4]
  IC50: 0.11 µM
HXB2 virus; [5]
  IC50: < 100 µM
HeLa P4-2 cell line; human
  Cytotoxicity (LD50, μM): 8.6 µM

## COC(=O)c1ccc2c(c1)CCN(c1cc(=O)n(O)c3ncccc13)C2 [Example 121, 4-[6-(methoxycarbonyl)-3,4-dihydroisoquinolin-2(1H)-yl]-1-hydroxy-1,8-naphthyridin-2(1H)-one]
[1]
  IC50: 150 nM
HIV integrase; [2]
  IC50: < 50 µM
HIV integrase; [3]
  IC50: 0.6 µM
HXB2 virus; [4]
  IC50: 0.26 µM
HXB2 virus; [5]
  IC50: < 100 µM
HeLa P4-2 cell line; human
  Cytotoxicity (LD50, μM): 16 µM

## O=c1cc(N2CCc3ncccc3C2)c2cccnc2n1O [Example 123, 4-(7,8-dihydro-1,6-naphthyridin-6(5H)-yl)-1-hydroxy-1,8-naphthyridin-2(1H)-one]
[1]; RNase H mediated RNA cleavage assay, Example 269, read-out: ASH (IC50)
  IC50: 110 nM
HIV integrase; integrase strand transfer, read-out: IC50 in the STA assay
  IC50: < 50 µM
HIV integrase; integrase strand-transfer assay, Example 269, read-out: STA (IC50)
  IC50: 2.4 µM
HXB2 virus; [4]
  IC50: 0.42 µM
HXB2 virus; [5]
  IC50: < 100 µM
HeLa P4-2 cell line; cytotoxicity test B, Alamar Blue, HeLa P4-2 cells, no virus, tested up to 100 micromolar
  Cytotoxicity (LD50, μM): 8.7 µM

## C[C@H](Nc1cc(=O)n(O)c2ncccc12)c1ccccc1 [Example 124, 1-hydroxy-4-{[(1S)-1-phenylethyl]amino}-1,8-naphthyridin-2(1H)-one]
[1]
  IC50: 230 nM
HIV integrase; [2]
  IC50: < 50 µM
HIV integrase; [3]
  IC50: 0.66 µM
HXB2 virus; [4]
  IC50: 0.16 µM
HXB2 virus; [5]
  IC50: < 100 µM
HeLa P4-2 cell line; human
  Cytotoxicity (LD50, μM): 50 µM

## O=c1cc(NC2CCc3ccccc32)c2cccnc2n1O (stereo not drawn) [Example 134, 4-(2,3-dihydro-1H-inden-1-ylamino)-1-hydroxy-1,8-naphthyridin-2(1H)-one]
[1]
  IC50: 91 nM
HIV integrase; [2]
  IC50: < 50 µM
HIV integrase; [3]
  IC50: 0.36 µM
HXB2 virus; [4]
  IC50: 0.034 µM
HXB2 virus; [5]
  IC50: < 100 µM
HeLa P4-2 cell line; human
  Cytotoxicity (LD50, μM): 23 µM

## O=c1cc(NC2CCCc3ccccc32)c2cccnc2n1O (stereo not drawn) [Example 135, 1-hydroxy-4-(1,2,3,4-tetrahydronaphthalen-1-ylamino)-1,8-naphthyridin-2(1H)-one]
[1]
  IC50: 61 nM
HIV integrase; [2]
  IC50: < 50 µM
HIV integrase; [3]
  IC50: 0.19 µM
HXB2 virus; [4]
  IC50: 0.5 µM
HXB2 virus; [5]
  IC50: < 100 µM
HeLa P4-2 cell line; human
  Cytotoxicity (LD50, μM): >100 µM

## COc1ccc(CNc2cc(=O)n(O)c3ncccc23)cc1 [Example 140, 1-hydroxy-4-[(4-methoxybenzyl)amino]-1,8-naphthyridin-2(1H-one)]
[1]
  IC50: 110 nM
HIV integrase; [2]
  IC50: < 50 µM
HIV integrase; [3]
  IC50: 0.22 µM
HXB2 virus; [4]
  IC50: 0.09 µM
HXB2 virus; [5]
  IC50: < 100 µM
HeLa P4-2 cell line; human
  Cytotoxicity (LD50, μM): 5 µM

## COc1ccccc1CNc1cc(=O)n(O)c2ncccc12 [Example 142, 1-hydroxy-4-[(2-methoxybenzyl)amino]-1,8-naphthyridin-2(1H-one)]
[1]
  IC50: 84 nM
HIV integrase; [2]
  IC50: < 50 µM
HIV integrase; [3]
  IC50: 0.56 µM
HXB2 virus; [4]
  IC50: 0.09 µM
HXB2 virus; [5]
  IC50: < 100 µM
HeLa P4-2 cell line; human
  Cytotoxicity (LD50, μM): 4.4 µM

## O=c1cc(Nc2ccccc2N2CCOCC2)c2cccnc2n1O [Example 147, 1-hydroxy-4-{[2-(4-morpholinyl)phenyl]amino}-1,8-naphthyridin-2(1H-one)]
[1]
  IC50: 17 nM
HIV integrase; [2]
  IC50: < 50 µM
HIV integrase; [3]
  IC50: 0.22 µM
HXB2 virus; [4]
  IC50: 0.2 µM
HXB2 virus; [5]
  IC50: < 100 µM
HeLa P4-2 cell line; human
  Cytotoxicity (LD50, μM): 7.7 µM

## O=c1cc(NCc2ccccn2)c2cccnc2n1O [Example 149, 1-hydroxy-4-[(2-pyridinylmethyl)amino]-1,8-naphthyridin-2(1H-one)]
[1]
  IC50: 140 nM
HIV integrase; [2]
  IC50: < 50 µM
HIV integrase; [3]
  IC50: 0.7 µM
HXB2 virus; [4]
  IC50: 0.06 µM
HXB2 virus; [5]
  IC50: < 100 µM
HeLa P4-2 cell line; human
  Cytotoxicity (LD50, μM): 5.2 µM

## CN1CCN(Cc2cccc(CNc3cc(=O)n(O)c4ncccc34)c2)CC1 [Example 150, 1-hydroxy-4-({3-[(4-methyl-1-piperazinyl)methyl]benzyl}amino)-1,8-naphthyridin-2(1H-one)]
[1]
  IC50: 150 nM
HIV integrase; [2]
  IC50: < 50 µM
HIV integrase; [3]
  IC50: 1.7 µM
HXB2 virus; [4]
  IC50: 0.07 µM
HXB2 virus; [5]
  IC50: < 100 µM
HeLa P4-2 cell line; human
  Cytotoxicity (LD50, μM): 14 µM

## O=c1cc(NCc2cccc(CN3CCOCC3)c2)c2cccnc2n1O [Example 151, 1-hydroxy-4-{[3-(4-morpholinylmethyl)benzyl]amino}-1,8-naphthyridin-2(1H-one)]
[1]
  IC50: 160 nM
HIV integrase; [2]
  IC50: < 50 µM
HIV integrase; [3]
  IC50: 0.23 µM
HXB2 virus; [4]
  IC50: 0.13 µM
HXB2 virus; [5]
  IC50: < 100 µM
HeLa P4-2 cell line; human
  Cytotoxicity (LD50, μM): 15 µM
